{
  "source": "patent US20090181420A1",
  "about": "“Inhibiting Smad signaling promotes neuron regeneration” (Children's Medical Center Corporation, priority 2006, published 2009)",
  "key": {"phospho-Smad2": {"system": "phospho-Smad2", "test": "Phospho-Smad2 in adult DRG after intraganglionic injection", "type": "in vivo, rat", "conditions": "2 μl of 5-10 mM injected into adult DRG (L4 and L5); pilot experiments"}, "[1]": {"system": "adult DRG neurons (L4 and L5)", "test": "Axonal growth ability of injected adult DRG neurons cultured in vitro for 12 hrs", "type": "in vivo, rat", "conditions": "injected into adult DRG; 3 or 7 days post-injection, cultured 12 hrs; vs saline", "description": "Average axon length of the longest neurite from every individual neuron was measured and quantified as described before (Koprivica et al., 2005; Wang et al., 2002a; Wang et al., 2002b). Branching frequency was measured by dividing the number of branches from the longest neurite by the length of the neurite, as previously described (Smith and Skene, 1997). All measurements were made from at least 150 neurons per condition, from duplicate wells and from three independent experiments.\nWe next examined whether inhibiting this signaling pathway could enhance the intrinsic growth state of adult DRG neurons by pharmacological approaches. We injected SB505124 or the same volume of saline into the adult DRG (L4 and L5). 3 or 7 days post-injection, the axonal growth ability of injected DRG neurons were assayed by culturing DRG neurons in vitro for 12 hrs."}, "Smad2/3 signaling [2]": {"system": "Smad2/3 signaling", "test": "Directed forepaw reaching (DFR) task after dorsal corticospinal tract transection", "type": "in vivo, Sprague Dawley rats", "conditions": "rats, sixth week after surgery; SB-505124 30 mg/kg tail vein or siRNA 10 μl intrathecal, days 1-7; vs lesion and vehicle groups", "description": "Adult Sprague Dawley rats (300-400 gm) are trained and tested in a directed forepaw reaching (DFR) apparatus which measures grasping ability. The apparatus, which is described in detail by Nash et al., supra, is a box that consists of two compartments: a main compartment for housing the rats and a minor compartment for the food, separated by a Plexiglas divider. The minor compartment is subdivided into slots of equal size, each holding a pellet of food. Between the slots and the Plexiglas there is a gap. The apparatus is configured such that in order to retrieve a food pellet from a slot, a rat must extend a forelimb through a hole in the Plexiglas divider, and grasp the pellet and lift it over the gap and out of the slot. If the rat merely rakes the food in the slot towards the hole in the Plexiglas, the food will drop from the slot into the gap and fall to the floor of the minor compartment. The floor of the minor compartment can be configured to allow a rat to retrieve food that drops or it can be lowered to prevent the rat from reaching dropped food. Prior to inducing spinal injury, the rats are food restricted, receiving ˜3 gm food/100 gm body weight per day, before and throughout training and testing. Weight is monitored to ensure that rats are reduced to no less than 80% of their original body weight at any time. […]"}, "Smad2/3 signaling [3]": {"system": "Smad2/3 signaling", "test": "Count of BDT-labeled CST axons caudal to spinal cord lesion", "type": "in vivo, Sprague Dawley rats", "conditions": "rats, seven weeks and 3 d after lesioning; 1-19 mm caudal to lesion; vs lesioned control rats", "description": "Rats are randomly assigned to control or experimental groups. Sham control rats undergo surgical procedure without lesioning, and with or without placement of an intrathecal catheter. Lesioned control rats receive no treatment, tail injection vehicle only treatment, intrathecal catheter only treatment, intrathecal catheter with vehicle only treatment, or intrathecal catheter and mismatch siRNA treatment. After anesthesia with isoflurane, the rats are placed on an operating board in such a way as to bend the cervical spinal cord for maximum exposure. A laminectomy is performed exposing the dorsum of the spinal cord between C2 and C4. The dorsal columns are identified bilaterally, and, in all rats except for those in the sham group, a suture needle is passed through the spinal cord, isolating the dorsal funiculus. The suture thread is gently lifted, and a pair of iridectomy scissors is used to bilaterally transect the dorsal funiculus, thereby transecting the dorsal corticospinal tract (CST). […]\nSeven weeks after injury, rats are prepared for injection of biotin dextran tetramethylrhodamine (BDT; Molecular Probes). […] After anesthesia with isoflurane (5%), rats are placed in a stereotaxic instrument, and a total of six stereotaxically determined holes (0.9 mm diameter) are drilled in the skull over the primary motor cortices associated with the forelimbs. […]"}, "embryonic DRG neurons": {"system": "embryonic DRG neurons", "test": "Effect of activin A on axonal growth ability of embryonic DRG neurons (prior experiments)", "type": "cell-based"}, "adult DRG neurons": {"system": "adult DRG neurons", "test": "Effect of activin A on axonal elongation of adult DRG neurons (prior experiments)", "type": "cell-based"}, "[4]": {"system": "dissociated adult rat DRG neurons", "test": "Axonal growth of adult rat DRG neurons overexpressing Smad7", "type": "cell-based", "conditions": "Smad7 overexpression vs control GFP", "description": "(§1) For overexpression of Smad7 in DRGs, adult rat DRG neurons were co-transfected by electroporation with 2 μg pEGFP (Invitrogen) and 5 μg of an expression construct for FLAG-tagged Smad7 (Nakao et al., 1997) or control plasmid using the Rat Neuron Nucleofector Kit (Amaxa) following manufacturer's protocol. After brief purification, the neurons were plated at a density of 200-500 cells/mm2. For overexpression of Smad7 in cerebellar granule neurons (CGN), CGNs from P6 Sprague-Dawley rat pups were dissected, plated onto poly-D-lysine (20 μg/ml), and cultured in Basal Medium Eagle (Gibco) supplemented with 10% calf serum, 25 mM KCl, 2 mM L-glutamine, penicillin and streptomycin, at a density of 2.5×10^3 cells/mm2. CGNs were co-transfected with pEGFP and Smad7 or control plasmid at a 1 to 3 ratio using a modified calcium phosphate transfection method as described before (Konishi et al., 2004). […]\n(§2) Average axon length of the longest neurite from every individual neuron was measured and quantified as described before (Koprivica et al., 2005; Wang et al., 2002a; Wang et al., 2002b). Branching frequency was measured by dividing the number of branches from the longest neurite by the length of the neurite, as previously described (Smith and Skene, 1997). […]"}, "[5]": {"system": "cerebellar granule neurons (CGNs) from postnatal rats", "test": "Axonal growth of cerebellar granule neurons overexpressing Smad7", "type": "cell-based, rat", "conditions": "Smad7 expression, effect became stronger with time", "description": "as §1, §2"}},
  "data": [
    {"molecule": "Cc1cccc(-c2[nH]c(C(C)(C)C)nc2-c2ccc3c(c2)OCO3)n1.Cl", "note": "[SB-505124, 2-(5-benzo[1,3]dioxol-5-yl-2-tert-butyl-3H-imidazol-4-yl)-6-methylpyridinehydrochloride]", "values": [
      {"measurement": "phospho-Smad2 in the injected DRGs", "setting": "phospho-Smad2", "result": "significant reduction of phospho-Smad2"},
      {"measurement": "axonal elongation of DRG neurons", "setting": "[1]", "result": "significantly increased axonal elongation"},
      {"measurement": "branching frequency of DRG neurons", "setting": "[1]", "result": "reduced branching frequency"},
      {"measurement": "DFR task performance (functional recovery after spinal injury)", "setting": "Smad2/3 signaling [2]", "result": "Significantly better performance"},
      {"measurement": "number of BDT-labeled axons caudal to the lesion", "setting": "Smad2/3 signaling [3]", "result": "Significantly more labeled axons at each distance"}
    ]},
    {"molecule": "activin A: TGFβ family member produced in skin (protein, UniProt P08476 311-426, looked up) Inhibin beta A chain: GLECDGKVNICCKKQFFVSFKDIGWNDWIIAPSGYHANYCEGECPSHIAGTSGSSLSFHSTVINHYRMRGHSPFANLKSCCVPTKLRPMSMLYYDDGQNIIKKDIQNMIVEECGCS", "values": [
      {"measurement": "axonal growth ability", "setting": "embryonic DRG neurons", "result": "triggers a decline in axonal growth ability"},
      {"measurement": "axonal elongation ability", "setting": "adult DRG neurons", "result": "reduces axonal elongation ability"}
    ]},
    {"molecule": "Smad7: FLAG-tagged Smad7 overexpressed from an expression construct; competes with Smad2/3 for binding to activated ALK (protein, UniProt O15105 1-426, looked up, FLAG tag) Mothers against …: MFRTKRSALVRRLWRSRAPGGEDEEEGAGGGGGGGELRGEGATDSRAHGAGGGGPGRAGCCLGKAVRGAKGHHHPHPPAAGAGAAGGAEADLKALTHSVLKKLKERQLELLLQAVESRGGTRTACLLLPGRLDCRLGPGAPAGAQPAQPPSSYSLPLLLCKVFRWPDLRHSSEVKRLCCCESYGKINPELVCCNPHHLSRLCELESPPPPYSRYPMDFLKPTADCPDAVPSSAETGGTNYLAPGGLSDSQLLLEPGDRSHWCVVAYWEEKTRVGRLYCVQEPSLDIFYDLPQGNGFCLGQLNSDNKSQLVQKVRSKIGCGIQLTREVDGVWVYNRSSYPIFIKSATLDNPDSRTLLVHKVFPGFSIKAFDYEKAYSLQRPNDHEFMQQPWTGFTVQISFVKGWGQCYTRQFISSCPCWLEVIFNSR", "values": [
      {"measurement": "rate of axonal growth", "setting": "[4]", "result": "significantly enhanced the rate of axonal growth"},
      {"measurement": "axonal growth rate", "setting": "[5]", "result": "dramatically increase axonal growth rate"}
    ]}
  ]
}
